Our source for the IC50 values is PubChem BioAssay AID624438 (The Scripps Research Institute Molecular Screening Center, 2012).

The source made the active and inactive calls.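 How the source made its calls: active means IC50 below 50 µM against the phosphatase PP2C-alpha; inactive means IC50 at or above 50 µM.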

This assay has as its target Protein phosphatase 1A (Homo sapiens) (UniProt P35813). Description: PP2C-alpha phosphatase inhibitors, late-stage follow-up, selectivity assay for PP5 inhibitor project, biochemical, fluorescence, OMFP substrate, round 5 (AID 624438). The following applies: purified MBP-PP2C-alpha, OMFP dephosphorylation fluorescence.

Chain of Protein phosphatase 1A (Homo sapiens) (P35813 whole entry, looked up): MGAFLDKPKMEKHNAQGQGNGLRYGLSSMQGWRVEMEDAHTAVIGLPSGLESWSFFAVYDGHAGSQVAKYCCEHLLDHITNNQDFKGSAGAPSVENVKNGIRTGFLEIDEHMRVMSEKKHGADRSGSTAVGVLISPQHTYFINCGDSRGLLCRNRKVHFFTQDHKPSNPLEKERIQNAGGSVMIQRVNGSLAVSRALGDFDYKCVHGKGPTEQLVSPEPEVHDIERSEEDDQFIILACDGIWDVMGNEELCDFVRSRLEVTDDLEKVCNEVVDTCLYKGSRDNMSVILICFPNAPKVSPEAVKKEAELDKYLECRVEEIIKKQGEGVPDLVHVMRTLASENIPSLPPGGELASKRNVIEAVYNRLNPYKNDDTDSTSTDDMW

On to `CC(C)Oc1ccccc1-c1n[nH]nc1C(=O)O`, for which the IC50 (in general, the concentration that gives 50% inhibition) is > 1000 µM (inactive).
